Measured values as given in patent US20130296311A1, “INHIBITORS OF HCV NS5A” (PRESIDIO PHARMACEUTICALS, INC., priority 2010, published 2013).
pEC50: −log10 of the molar value.

Each molecule was assayed on HCV 1b_Huh-Luc/Neo-ET cell line persistently expressing a bicistronic genotype 1b replicon in Huh 7 cells (assay: HCV replicon assay (luciferase readout, 72 h)). Conditions: Hepatitis C virus, Huh-7, 72 h, read-out: Inhibition of HCV.
Type: cell-based, HCV genotype 1b
How it was run: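 Huh 7 cells carrying a bicistronic genotype 1b luciferase/neo replicon received compound in triplicate the day after plating. After 72 h, replicon levels were read as Bright-Glo luciferase activity, expressed as % of control; EC50 was fitted with a four-parameter logistic and determined several times.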

Structure (SMILES) | pEC50
COC(=O)N[C@@H](C(=O)N1CCC[C@H]1c1nc2ccc(C#Cc3ccc4nc([C@@H]5CCCN5C(=O)[C@H](NC(=O)OC)c5ccccc5)[nH]c4c3)cc2[nH]1)c1ccccc1 [Compound 851] | > 9.00

Same assay, conditions: Hepatitis C virus, Huh-7, 72 h, read-out: Inhibition of HCV genotype 1b

Structure (SMILES) | pEC50
O=C(N[C@@H](C(=O)N1CCC[C@H]1c1ncc(-c2ccc(C#Cc3ccc(-c4cnc([C@@H]5CCCN5C(=O)[C@H](NC(=O)N5CCC(O)CC5)c5ccccc5)[nH]4)cc3)cc2)[nH]1)c1ccccc1)N1CCC(O)CC1 [Compound 251] | > 9.00
COC(=O)N[C@@H](C(=O)N1CCC[C@H]1c1ncc(-c2ccc(C#Cc3ccc(-c4cnc([C@@H]5CCCN5C(=O)[C@H](NC(=O)N5CCC[C@H]5C)c5ccccc5)[nH]4)cc3)cc2)[nH]1)c1ccccc1 [Compound 262] | > 9.00
CNC(=O)N[C@@H](C(=O)N1CCC[C@H]1c1ncc(C#Cc2ccc(C#Cc3cnc([C@@H]4CCCN4C(=O)[C@H](NC(=O)NC)c4ccccc4)[nH]3)cc2)[nH]1)c1ccccc1 [Compound 307] | > 9.00
O=C([C@@H](c1ccccc1)N1CCCCC1)N1CCC[C@H]1c1ncc(-c2ccc(C#Cc3ccc(-c4cnc([C@@H]5CCCN5C(=O)[C@@H](c5ccccc5)N5CCCCC5)[nH]4)cc3)cc2)[nH]1 [Compound 205] | > 9.00
COC(=O)N[C@@H](C(=O)N1CCC[C@H]1c1ncc(C#Cc2ccc(-c3ccc(-c4cnc([C@@H]5CCCN5C(=O)[C@H](NC(=O)OC(C)(C)C)c5ccccc5)[nH]4)cc3)cc2)[nH]1)c1ccccc1 [Compound 753] | > 9.00
COC(=O)NCC(=O)N1CCC[C@H]1c1ncc(-c2ccc(C#Cc3ccc4nc([C@@H]5CCCN5C(=O)CNC(=O)OC)[nH]c4c3)cc2)[nH]1 [Compound 1049] | 6.00 to 8.00
COC(=O)N[C@H](C(=O)N1CCC[C@H]1c1nc(-c2ccc3cc(C#Cc4cnc([C@@H]5CCCN5C(=O)[C@@H](NC(=O)OC)C5CCOCC5)[nH]4)ccc3c2)c[nH]1)C(C)C [Compound 1079] | > 9.00
C[C@@H](c1ncc(-c2ccc(C#Cc3ccc(-c4cnc([C@@H]5CCCN5C(=O)[C@H](NC(=O)OC(C)(C)C)c5ccccc5)[nH]4)cc3)cc2)[nH]1)N(C)C(=O)[C@H](NC(=O)OC(C)(C)C)c1ccccc1 [Compound 265] | > 9.00
COC(=O)N[C@@H](C(=O)N1CCC[C@H]1c1ncc(-c2ccc(C#Cc3ccc(-c4cnc([C@@H]5CCCN5C(=O)[C@H](NC(=O)C5CC5)c5ccccc5)[nH]4)cc3)cc2)[nH]1)c1ccccc1 [Compound 218] | > 9.00
COC(=O)N[C@H](C(=O)N1CCC[C@H]1c1nc2ccc(C#Cc3ccc(-c4cnc([C@@H]5CCCN5C(=O)[C@H](NC(=O)OC)c5ccccc5)[nH]4)cc3)cc2[nH]1)C(C)C [Compound 1022] | > 9.00
COC(=O)N[C@H](C(=O)N1CCC[C@H]1c1ncc(-c2ccc(C#Cc3ccc(-c4cnc([C@@H]5CCCN5C(=O)[C@@H](NC(=O)OC)[C@@H](C)OC)[nH]4)cc3)cc2)[nH]1)C(C)C [Compound 972] | > 9.00
C[C@@H](NC(=O)[C@@H]1CCCN1C(=O)[C@H](NC(=O)C1CC1)c1ccccc1)c1ccc(C#Cc2ccc(-c3cnc([C@@H]4CCCN4C(=O)[C@H](NC(=O)C4CC4)c4ccccc4)[nH]3)cc2)cc1 [Compound 168] | > 9.00
COC(=O)N[C@H](C(=O)N1CCC[C@H]1c1ncc(-c2ccc(C#Cc3ccc(-c4cnc([C@@H]5CCCN5C(=O)[C@@H](c5ccccc5)N5CCN(CCO)CC5)[nH]4)cc3)cc2)[nH]1)C(C)C [Compound 958] | > 9.00
COC(=O)N[C@@H](CC(=O)N1CCC[C@H]1c1ncc(-c2ccc(C#Cc3ccc4nc([C@@H]5CCCN5C(=O)C[C@H](NC(=O)OC)C(C)C)[nH]c4c3)cc2)[nH]1)C(C)C [Compound 1064] | 6.00 to 8.00
COC(=O)N[C@H](C(=O)N1CCC[C@H]1c1ncc(-c2ccc(C#Cc3ccc(-c4cnc([C@@H]5CCCN5C(=O)[C@@H](NC(=O)OC)C(C)C)[nH]4)c(F)c3)cc2)[nH]1)C(C)C [Compound 1011] | > 9.00
COC(=O)N[C@@H]1CCC[C@H]1C(=O)N1CCC[C@H]1c1ncc(-c2ccc(C#Cc3ccc4nc([C@@H]5CCCN5C(=O)[C@@H]5CCC[C@H]5NC(=O)OC)[nH]c4c3)cc2)[nH]1 [Compound 1058] | 6.00 to 8.00

Structure (SMILES) | pEC50
COC(=O)N[C@H](C(=O)N1CCC[C@H]1c1ncc(-c2ccc(C#Cc3ccc(-c4cnc([C@@H]5CCCN5C(=O)[C@@H](NC5CCOCC5)C(C)C)[nH]4)cc3)cc2)[nH]1)C(C)C [Compound 1001] | 8.00 to 9.00
CN1CCN(C(=O)N[C@@H](C(=O)N2CCC[C@H]2c2ncc(-c3ccc(C#Cc4ccc(-c5cnc([C@@H]6CCCN6C(=O)[C@H](NC(=O)C6CC6)c6ccccc6)[nH]5)cc4)cc3)[nH]2)c2ccccc2)CC1 [Compound 238] | > 9.00
CN(C)[C@@H](C(=O)N1CCC[C@H]1c1ncc(-c2ccc(C#Cc3cnc([C@@H]4CCCN4C(=O)[C@H](NC(=O)C4CC4)c4ccccc4)[nH]3)cc2)[nH]1)c1ccccc1 [Compound 131] | > 9.00
COC(=O)N[C@@H](C(=O)N1CCC[C@H]1c1ncc(-c2ccc(C#Cc3ccc(-c4cnc([C@@H]5CCCN5C(=O)[C@H](NC(=O)C5CCCN5C)c5ccccc5)[nH]4)cc3)cc2)[nH]1)c1ccccc1 (some centres unmarked) [Compound 203] | > 9.00
COC(=O)N[C@@H](C(=O)N1CCC[C@H]1c1ncc(-c2ccc(C#Cc3ccc(-c4cnc([C@@H]5CCCN5C(=O)[C@@H](c5ccccc5)N5CCCC5)[nH]4)cc3)cc2)[nH]1)c1ccccc1 [Compound 178] | > 9.00
COC(=O)N[C@H](C(=O)N1CCC[C@H]1c1ncc(-c2ccc(C#Cc3ccc(-c4cnc([C@@H]5CCCN5C(=O)[C@H](NC(=O)N5CC[C@H](O)C5)c5ccccc5)[nH]4)cc3)cc2)[nH]1)C(C)C [Compound 974] | > 9.00
COC(=O)N[C@@H](C(=O)N1CCC[C@H]1c1ncc(-c2ccc(C#Cc3ccc4nc([C@@H]5CCCN5C(=O)[C@H](NC(=O)OC)c5ccccc5)[nH]c4c3)cc2)[nH]1)c1ccccc1 [Compound 800] | > 9.00
CC(C)[C@@H](NC(=O)C1CC1)C(=O)N1CCC[C@H]1C(=O)NCCc1ccc(C#Cc2cnc([C@@H]3CCCN3C(=O)[C@H](NC(=O)C3CC3)C(C)C)[nH]2)cc1 [Compound 127] | 6.00 to 8.00
COC(=O)N[C@@H](C(=O)N1CCC[C@H]1c1ncc(-c2ccc(C#Cc3ccc(-c4cnc([C@@H]5CCCN5C(=O)Cc5cccnc5)[nH]4)cc3)cc2)[nH]1)c1ccccc1 [Compound 181] | > 9.00
O=C(N[C@@H](C(=O)N1CCC[C@H]1c1ncc(-c2ccc(C#Cc3ccc(-c4cnc([C@@H]5CCCN5C(=O)[C@@H](c5ccccc5)N5CCOCC5)[nH]4)cc3)cc2)[nH]1)c1ccccc1)C1CC1 [Compound 237] | > 9.00
CC(C)[C@@H](NC(=O)OC(C)(C)C)C(=O)N1CCC[C@H]1c1ncc(C#Cc2ccc(-c3cnc([C@@H]4CCCN4C(=O)[C@H](NC(=O)OC(C)(C)C)C(C)C)[nH]3)cc2)[nH]1 [Compound 105] | 6.00 to 8.00
COC(=O)N[C@H](C(=O)N1CCC[C@H]1c1ncc(-c2ccc(C#Cc3ccc(-c4cnc([C@@H]5CCCN5C(=O)[C@@H](c5ccccc5)N(C)C)[nH]4)cc3)cc2)[nH]1)C(C)C [Compound 955] | > 9.00
COC(=O)N[C@H](C(=O)N1CCC[C@H]1c1ncc(-c2ccc(C#Cc3ccc4nc([C@@H]5CCCN5C(=O)[C@@H](NC(=O)OC)[C@@H](C)OC)[nH]c4c3)cc2)[nH]1)[C@@H](C)OC [Compound 862] | > 9.00
COC(=O)N[C@H](C(=O)N1CCC[C@H]1c1ncc(-c2ccc(C#Cc3ccc4c(c3)CCc3nc([C@@H]5CCCN5C(=O)[C@@H](NC(=O)OC)C(C)C)[nH]c3-4)cc2)[nH]1)C(C)C [Compound 1094] | > 9.00
COC(=O)N[C@@H](C(=O)N1CCC[C@H]1c1ncc(-c2ccc(C#Cc3ccc(-c4cnc([C@@H]5CCCN5C(=O)[C@H](NC(=O)N5CCC[C@@H]5C)c5ccccc5)[nH]4)cc3)cc2)[nH]1)c1ccccc1 [Compound 261] | > 9.00

Same assay, conditions: Hepatitis C virus, Huh-7, read-out: Inhibition of HCV genotype 1b

Structure (SMILES) | pEC50
COC(=O)N[C@H](C(=O)N1CCC[C@H]1c1ncc(-c2ccc(C#Cc3ccc(-c4cnc([C@@H]5CCCN5C(=O)[C@@H](NC(=O)OC)C(C)C)[nH]4)cc3C(=O)N3CCCC3)cc2)[nH]1)C(C)C [Compound 1208] | > 9.00
COC(=O)N[C@H](C(=O)N1CCC[C@H]1c1ncc(-c2ccc(C#Cc3ccc(-c4cnc([C@@H]5CCCN5C(=O)[C@@H](NC(=O)OC)C5CCOCC5)[nH]4)cc3)cc2)[nH]1)C1CCOCC1 [Compound 1218] | > 9.00
COC(=O)N[C@H](C(=O)N1CCC[C@H]1c1ncc(-c2ccc(C#Cc3ccc4nc([C@@H]5CCCN5C(=O)[C@@H](NC(=O)OC)C5CCCC5)[nH]c4n3)cc2)[nH]1)C1CCCC1 [Compound 1250] | > 9.00
COC(=O)N[C@H](C(=O)N1CCN(C(=O)OC)C[C@H]1c1ncc(-c2ccc(C#Cc3ccc4nc([C@@H]5CCCN5C(=O)[C@H](NC(=O)OC)c5ccccc5)[nH]c4c3)cc2)[nH]1)C(C)C [Compound 1230] | > 9.00
COC(=O)N[C@@H](C(=O)N1CCC[C@H]1CNC(=O)c1ccc(C#Cc2ccc3nc([C@@H]4CCCN4C(=O)[C@H](NC(=O)OC)c4ccccc4)[nH]c3c2)cn1)c1ccccc1 [Compound 1241] | > 9.00
COC(=O)N[C@H](C(=O)N1CCC[C@H]1c1nc2c([nH]1)-c1ccc(C#Cc3ccc4nc([C@@H]5CCCN5C(=O)[C@H](NC(=O)OC)c5ccccc5)[nH]c4c3)cc1CCC2)C(C)C [Compound 1281] | > 9.00
COC(=O)N[C@H](C(=O)N1CCC[C@H]1c1ncc(-c2ccc3cc(C#Cc4[nH]c([C@@H]5CCCN5C(=O)[C@@H](NC(=O)OC)[C@@H](C)OC)nc4C(F)(F)F)ccc3c2)[nH]1)C1CCCC1 [Compound 1260] | > 9.00
COC(=O)N[C@H](C(=O)N1CCC[C@H]1c1ncc(-c2ccc(C#Cc3ccc(-c4cnc([C@@H]5CCCN5C(=O)[C@@H](NC(=O)OC)C(C)C)[nH]4)cc3C#N)cc2)[nH]1)C(C)C [Compound 1202] | > 9.00
COC(=O)N[C@H](C(=O)N1CCC[C@H]1CNC(=O)c1ccc(C#Cc2ccc3nc([C@@H]4CCCN4C(=O)[C@@H](NC(=O)OC)C(C)C)[nH]c3c2)cc1)C(C)C [Compound 1238] | > 9.00
